Assay results taken from patent publication US20130060020A1, “Compounds useful for treating neurodegenerative disorders” (Satori Pharmaceuticals, Inc., priority 2011, published 2013).
Like-named read-outs stand apart in the source and are kept apart here.

How the values were obtained:
Assay type in all cases: cell-based
Aβ-38 = Aβ-38 MSD 3-plex ELISA, conditioned media of 2B7 cells; details: Homo sapiens, 5 hours treatment
How it was run: (§1)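 Confluent 2B7 cells treated 5 h at 37 °C with compound in media containing 1% DMSO. Conditioned media diluted 1:1 in blocking buffer and assayed on 6E10 Aβ 3-plex MSD plates against standard curves. Percent-vehicle values fitted to dose-response curves to give IC50.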

Aβ-40 = Aβ-40 MSD 3-plex ELISA, conditioned media of 2B7 cells; details: Homo sapiens, 5 hours treatment
How it was run: as §1

Aβ-42 = Aβ-42 MSD 3-plex ELISA, conditioned media of 2B7 cells; details: Homo sapiens, 5 hours treatment
How it was run: as §1

Notch processing (NICD) = experiment: Notch assay: NICD appearance in SUP-T1 cells (western blot); details: 18 hours; for Notch % inhib: Notch inhib conc class D (1001-5000 nM); for inhibition at 5 µM: Notch inhib conc class E (>5000 nM)
Protocol: The methods for this assay are broken up into two parts. 1) Growing, dosing and lysing cells 2) Measuring Notch processing (NICD appearance) and data manipulation. Cell viability is also described (CTG). SUP-T1 cells were cultured in T75 flasks in RPMI media (Mediatech 10-041-CV) supplemented with 10% FBS and penicillin/streptomycin at 37° C. in a 5% CO2 atmosphere. One hour prior to drug treatment six well plates were seeded with 1.5 mL of media with cells at a density of 1.0×10^6 cells/mL. The DMSO serial dilutions were diluted 100 fold directly into the media with the cells and incubated for 18 hours at 37° C. After treatment 100 μL of treated cells were assayed for viability with the Promega Cell Titer Glo assay system. […] Lysates were spun at 5,000 RPM for 5 minutes and supernatants were collected and analyzed for NICD levels. […] To account for loading discrepancies each NICD band was normalized to the alpha tubulin band in that well. These values were then normalized to vehicle levels and used to plot a dose response curve. IC50 values were obtained from the dose response curves using a four parameter fit method available within Prism's GraphPad graphing suite. Luminescent data from Promega's Cell Titre Glo assay system were normalized to vehicle controls and plotted with NICD levels.

[1] = inflection of dose response curve, read-out: Aβ 38 DR IC50 Inflection
[2] = inflection of dose response curve, read-out: Aβ 40 DR IC50 Inflection
[3] = inflection of dose response curve, read-out: Aβ 42 DR IC50 Inflection

CCO[C@@H]([C@H]1C[C@@H](C)[C@H]2[C@H](O1)[C@H](O)[C@@]1(C)[C@@H]3CC[C@H]4C(C)(C)[C@@H](O[C@H]5CN(C6CNC6)CCO5)CC[C@@]45C[C@@]35CC[C@]21C)C(C)(C)O [Compound I-2]
IC50 (Aβ-38; [1]): 100 to 500 nM
IC50 (Aβ-38; read-out: Aβ 38 IC50): 100 to 500 nM
IC50 (Aβ-40; [2]): > 5000 nM
IC50 (Aβ-40; read-out: Aβ 40 IC50): 1000 to 5000 nM
IC50 (Aβ-42; [3]): < 100 nM
IC50 (Aβ-42; read-out: Aβ 42 IC50): 100 to 500 nM
Notch % inhib (Notch processing (NICD)): A (A is range from 0-25%)

CCO[C@@H]([C@H]1C[C@@H](C)[C@H]2[C@H](O1)[C@H](O)[C@@]1(C)[C@@H]3CC[C@H]4C(C)(C)[C@@H](O[C@H]5CN(C6CN(C)C6)CCO5)CC[C@@]45C[C@@]35CC[C@]21C)C(C)(C)O [Compound I-3]
inhibition at 5 µM (Notch processing (NICD); Homo sapiens): 26 to 50%

CCO[C@@H]([C@H]1C[C@@H](C)[C@H]2[C@H](O1)[C@H](O)[C@@]1(C)[C@@H]3CC[C@H]4C(C)(C)[C@@H](O[C@H]5CN(C6CN(CC(=O)N(C)C)C6)CCO5)CC[C@@]45C[C@@]35CC[C@]21C)C(C)(C)O [Compound I-7]
IC50 (Aβ-38; read-out: Aβ 38 IC50): 100 to 500 nM
IC50 (Aβ-40; read-out: Aβ 40 IC50): 1000 to 5000 nM
IC50 (Aβ-42; [3]): 100 to 500 nM
IC50 (Aβ-42; read-out: Aβ 42 IC50): 100 to 500 nM
Notch % inhib (Notch processing (NICD)): A (A is range from 0-25%)

CCO[C@@H]([C@H]1C[C@@H](C)[C@H]2[C@H](O1)[C@H](O)[C@@]1(C)[C@@H]3CC[C@H]4C(C)(C)[C@@H](O[C@H]5CN(C6CN(CC(=O)N7CCC7)C6)CCO5)CC[C@@]45C[C@@]35CC[C@]21C)C(C)(C)O [Compound I-8]
IC50 (Aβ-38; read-out: Aβ 38 IC50): 1000 to 5000 nM
IC50 (Aβ-40; read-out: Aβ 40 IC50): 1000 to 5000 nM
IC50 (Aβ-42; [3]): 100 to 500 nM
IC50 (Aβ-42; read-out: Aβ 42 IC50): 100 to 500 nM
Notch % inhib (Notch processing (NICD)): A (A is range from 0-25%)

CCO[C@@H]([C@H]1C[C@@H](C)[C@H]2[C@H](O1)[C@H](O)[C@@]1(C)[C@@H]3CC[C@H]4C(C)(C)[C@@H](O[C@H]5CN(C6CCN(C7COC7)CC6)CCO5)CC[C@@]45C[C@@]35CC[C@]21C)C(C)(C)O [Compound I-35]
IC50 (Aβ-38; read-out: Aβ 38 IC50): 501 to 1000 nM
IC50 (Aβ-40; [2]): 1000 to 5000 nM
IC50 (Aβ-40; read-out: Aβ 40 IC50): 1000 to 5000 nM
IC50 (Aβ-42; [3]): 100 to 500 nM
IC50 (Aβ-42; read-out: Aβ 42 IC50): 100 to 500 nM
IC50 (Notch processing (NICD); Homo sapiens, NICD levels): > 5000 nM

CCO[C@@H]([C@H]1C[C@@H](C)[C@H]2[C@H](O1)[C@H](O)[C@@]1(C)[C@@H]3CC[C@H]4C(C)(C)[C@@H](O[C@H]5CN(CCN6CCC6)CCO5)CC[C@@]45C[C@@]35CC[C@]21C)C(C)(C)O [Compound I-57]
IC50 (Aβ-38; read-out: Aβ 38 IC50): 100 to 500 nM
IC50 (Aβ-40; [2]): 1000 to 5000 nM
IC50 (Aβ-40; read-out: Aβ 40 IC50): 1000 to 5000 nM
IC50 (Aβ-42; [3]): < 100 nM
IC50 (Aβ-42; read-out: Aβ 42 IC50): 100 to 500 nM
inhibition at 5 µM (Notch processing (NICD); Homo sapiens): 0 to 25%

CCO[C@@H]([C@H]1C[C@@H](C)[C@H]2[C@H](O1)[C@H](O)[C@@]1(C)[C@@H]3CC[C@H]4C(C)(C)[C@@H](O[C@H]5CN(CCN6CCOCC6)CCO5)CC[C@@]45C[C@@]35CC[C@]21C)C(C)(C)O [Compound I-58]
IC50 (Aβ-38; read-out: Aβ 38 IC50): 501 to 1000 nM
IC50 (Aβ-40; read-out: Aβ 40 IC50): > 5000 nM
IC50 (Aβ-42; [3]): 100 to 500 nM
IC50 (Aβ-42; read-out: Aβ 42 IC50): 100 to 500 nM
inhibition at 5 µM (Notch processing (NICD); Homo sapiens): 26 to 50%

CCO[C@@H]([C@H]1C[C@@H](C)[C@H]2[C@H](O1)[C@H](O)[C@@]1(C)[C@@H]3CC[C@H]4C(C)(C)[C@@H](O[C@H]5CN(CCNCCOC)CCO5)CC[C@@]45C[C@@]35CC[C@]21C)C(C)(C)O [Compound I-60]
IC50 (Aβ-38; [1]): 100 to 500 nM
IC50 (Aβ-38; read-out: Aβ 38 IC50): 100 to 500 nM
IC50 (Aβ-40; [2]): 1000 to 5000 nM
IC50 (Aβ-40; read-out: Aβ 40 IC50): 1000 to 5000 nM
IC50 (Aβ-42; [3]): 100 to 500 nM
IC50 (Aβ-42; read-out: Aβ 42 IC50): 100 to 500 nM
Notch % inhib (Notch processing (NICD)): A (A is range from 0-25%)

CCO[C@@H]([C@H]1C[C@@H](C)[C@H]2[C@H](O1)[C@H](O)[C@@]1(C)[C@@H]3CC[C@H]4C(C)(C)[C@@H](O[C@H]5CN(CCN(C)CCOC)CCO5)CC[C@@]45C[C@@]35CC[C@]21C)C(C)(C)O [Compound I-61]
IC50 (Aβ-38; read-out: Aβ 38 IC50): 501 to 1000 nM
IC50 (Aβ-40; [2]): 1000 to 5000 nM
IC50 (Aβ-40; read-out: Aβ 40 IC50): 1000 to 5000 nM
IC50 (Aβ-42; [3]): 100 to 500 nM
IC50 (Aβ-42; read-out: Aβ 42 IC50): 100 to 500 nM
Notch % inhib (Notch processing (NICD)): A (A is range from 0-25%)

CCO[C@@H]([C@H]1C[C@@H](C)[C@H]2[C@H](O1)[C@H](O)[C@@]1(C)[C@@H]3CC[C@H]4C(C)(C)[C@@H](O[C@H]5CN([C@@H](C)CN6CCC6)CCO5)CC[C@@]45C[C@@]35CC[C@]21C)C(C)(C)O [Compound I-76]
IC50 (Aβ-42; [3]): 1000 to 5000 nM
Notch % inhib (Notch processing (NICD)): B (B is a range from 26-50%)

CCO[C@@H]([C@H]1C[C@@H](C)[C@H]2[C@H](O1)[C@H](O)[C@@]1(C)[C@@H]3CC[C@H]4C(C)(C)[C@@H](O[C@H]5CN([C@H](C)CN6CCC6)CCO5)CC[C@@]45C[C@@]35CC[C@]21C)C(C)(C)O [Compound I-77]
Notch % inhib (Notch processing (NICD)): A (A is range from 0-25%)
